Each structure is given as a SMILES string.

Conditions in one series: not given
As usually defined, the boiling point is the temperature of boiling at a given pressure. By melting point is commonly meant the temperature of the solid-liquid transition. Regarding `CCCC(C)OC(C)=O` (stereo not given), the boiling point was found to be 130 °C and the melting point is -100 °C.

For the molecule `C#CC(C)(C)C`, the boiling point was 37.7 °C and the melting point was -78.2 °C.

On to `CC1CCCC(Br)C1` (stereo not given), for which the boiling point worked out at 181 °C.

Turning to `CCCCCOC(=O)CCC(=O)OCCCCC`, the melting point is -10.8 °C.

As for `c1cc2ccc3ccc4ccc5ccc6ccc1c1c2c3c4c5c61`, the boiling point was determined as 525 °C, the log10 biodegradation half-life (days) was 2.87, the log10 vapour pressure (mmHg) was -11.7 and the melting point amounted to 437 °C.

Consider `CCCC(=O)OCCOc1ccccc1`, for which the boiling point was found to be 251 °C.

With `O=Cc1ccc(O)cc1`, the boiling point is 310 °C, the log10 Henry constant (atm·m³/mol) is -9.29, the log10 vapour pressure (mmHg) was -3.95 and the melting point was 117 °C. Besides, the ready biodegradability entry is listed as “readily biodegradable”.

In turn, `O=C(O)c1cc(Cl)cc(Cl)c1` came in with a melting point of 188 °C.

For the molecule `CC(C)C(O)C(C)(C)CO` (stereo not given), the boiling point came out at 232 °C, the log10 vapour pressure (mmHg) is -2.35, the melting point came out at 51.5 °C and the ready biodegradability entry is on record as “readily biodegradable”.

Take `COc1cccc2c1C(=O)c1c(O)c3c(c(O)c1C2=O)C[C@@](O)(C(C)=O)C[C@@H]3O[C@H]1C[C@H](N)[C@H](O)[C@H](C)O1`: the melting point worked out at 208 °C.

With `c1ccoc1`, the boiling point was determined as 31.5 °C, the log10 vapour pressure (mmHg) turned out to be 2.78, the melting point was -85.6 °C and the ready biodegradability entry is “not readily biodegradable”.

Take `CC(c1ccc(Cl)cc1)c1ccc(Cl)cc1`: the boiling point came to 320 °C and the melting point stood at 56 °C.

In turn, `COC1=CC(=O)O[C@@H](/C=C/c2ccccc2)C1` came in with a melting point of 106 °C.

Molecule `CON(C)C(=O)Nc1ccc(Oc2ccc3c(c2)OC(C)(OC)CC3(C)C)cc1` (stereo not given) registered a melting point of 102 °C.

As for `CCC(C)(C)C(=O)Cl`, the boiling point is 132 °C.

As for `CCOC(=O)c1ccccc1OC`, the boiling point came to 261 °C.

For the molecule `O=C1C=CCCC1`, the boiling point was determined as 170 °C and the melting point was -53 °C.

`CCCCCN(CCCCC)CCCCC` came in with a boiling point of 242 °C.

`C=CCCCCCCC(=O)O` came in with a melting point of 5 °C.

For the molecule `CC(=O)C=Cc1ccco1`, the melting point was 39.5 °C.

Regarding `Oc1ccc(O)cc1`, the boiling point was found to be 287 °C, the log10 vapour pressure (mmHg) was -4.62, the melting point was 172 °C and the ready biodegradability entry was “readily biodegradable”.

In the case of `CC(=O)Nc1ccccc1[N+](=O)[O-]`, the melting point came out at 94 °C.

For the molecule `O=C1CCCCC1Cl` (stereo not given), the melting point was 23 °C.

In the case of `c1coc(CSSCc2ccco2)c1`, the melting point worked out at 10 °C.

In the case of `CCN(CC)C(=O)C(Cl)=C(C)OP(=O)(OC)OC`, the log10 Koc (L/kg) came out at 0.85.

In turn, `COc1ccc2c(c1O)[C@]13CCN(C)[C@H](C2)[C@@H]1C=CC(=O)C3` registered a melting point of 152 °C.

The molecule `O=C(O)CCC(=O)Nc1ccc(S(=O)(=O)Nc2nccs2)cc1` gave a melting point of 194 °C.

The molecule `Nc1cccc2c1Cc1ccccc1-2` showed a melting point of 126 °C.

For the molecule `C1CCC(CCCCC2CCCCC2)CC1`, the boiling point is 305 °C and the melting point was found to be 12 °C.

For the molecule `CCCCOS(=O)OCCCC`, the boiling point stood at 230 °C.

In the case of `C=CC(=O)OCC(CO)(COC(=O)C=C)COC(=O)C=C`, the ready biodegradability result is given as “not readily biodegradable”.

As for `C=CC(=O)OCC(CC)CC`, the log10 vapour pressure (mmHg) is 0.23 and the melting point is -70 °C.

Consider `Cl.ClCCN(Cc1ccccc1)Cc1ccccc1`, for which the melting point stood at 192 °C.

Consider `CCCCCCCCCCCCCCCCCC(=O)OCCOC(=O)CCCCCCCCCCCCCCCCC`, for which the melting point was determined as 79 °C and the ready biodegradability entry is “readily biodegradable”.

For the molecule `BrCCCCCCCBr`, the boiling point is 263 °C and the melting point is 41.7 °C.

`Oc1ccc2cccc(Cl)c2c1` came in with a boiling point of 308 °C and a melting point of 101 °C.

On to `CCOC(=O)c1ccccc1C`, for which the boiling point came out at 227 °C.

Regarding `Clc1ccc(Cl)c(Oc2ccccc2)c1Cl`, the log10 vapour pressure (mmHg) is -3.55.

Turning to `C/C=C(\C)c1ccccc1`, the melting point is -23.5 °C.

The molecule `CC1=NCCN1` gave a boiling point of 196 °C and a melting point of 107 °C.

As to `CC(C)OC(=O)Cl`, the boiling point amounted to 105 °C, the log10 vapour pressure (mmHg) is 1.57 and the ready biodegradability entry is “not readily biodegradable”.

In the case of `COC(=O)c1cccc(I)c1`, the boiling point is 277 °C and the melting point was found to be 54.5 °C.

The molecule `Cc1c(Cl)c(=O)oc2cc(OP(=O)(OCCCl)OCCCl)ccc12` came in with a melting point of 91 °C.

The molecule `C[Si](C)(Cl)CCl` had a boiling point of 116 °C.

`CCOC(=O)CCCCCCC(=O)OCC` registered a boiling point of 283 °C and a melting point of 5.9 °C.

In the case of `O=C1c2ccccc2C(=O)C1c1ccc(F)cc1`, the melting point is 120 °C.

Take `CCOC(=O)[C@H](O)[C@@H](O)C(=O)OCC`: the boiling point turned out to be 280 °C and the melting point is 17 °C.

Molecule `C=Cc1ccccc1OC` gave a boiling point of 197 °C and a melting point of 29 °C.

In the case of `Cc1cccc2c1CCCC2`, the boiling point is 234 °C and the melting point is -23 °C.

With `CCCCCCOC(=O)c1ccccc1`, the boiling point amounted to 272 °C.

As for `CC(C)Oc1ccc(C(=O)NS(=O)(=O)c2ccc(N)cc2)cc1`, the melting point worked out at 172 °C.

In the case of `CC[C@H]1C[N@@]2CC[C@H]1C[C@H]2[C@H](O)c1ccnc2ccc(OC)cc12`, the melting point came out at 170 °C.

For the molecule `O=C1OCCC1N(C(=O)C1CC1)c1cccc(Cl)c1` (stereo not given), the melting point was 95 °C.

Turning to `O=C(O)c1ccc(-c2ccccc2)cc1`, the melting point came out at 228 °C.

Molecule `COC(=O)c1ccc(N)cc1` registered a melting point of 110 °C.

Regarding `CCCCCCCCOC(=O)CCCC`, the boiling point came to 262 °C and the melting point is -42.3 °C.

Turning to `OCCSSCCO`, the melting point came out at 26 °C.

As to `NS(=O)(=O)c1ccccc1[N+](=O)[O-]`, the melting point was 191 °C.

`CCC[C@@H](O)CC` showed a boiling point of 135 °C and a log10 vapour pressure (mmHg) of 0.682.

`CC(C)CC=NO`: the boiling point was 161 °C and the melting point came out at 48.5 °C.

`ClCc1ccc(Br)cc1`: the boiling point is 236 °C and the melting point is 50 °C.

In turn, `CC1=C(/C=C/C(C)=C/C=C/C(C)=C/CO)C(C)(C)CCC1` yielded a melting point of 63.5 °C.

Regarding `O=[N+]([O-])c1ccc(Cl)cc1`, the boiling point came to 242 °C, the log10 Henry constant (atm·m³/mol) was -5.31, the log10 vapour pressure (mmHg) is -1.66 and the melting point came to 83.5 °C. For the same molecule, the ready biodegradability result was “not readily biodegradable”.

Consider `Cc1nc2n(c(=O)c1CCN1CCC(c3noc4cc(F)ccc34)CC1)CCCC2`, for which the melting point stood at 170 °C.

For the molecule `CC=C(CC)C(=O)NC(N)=O`, the melting point was 198 °C.

For `O=CCCCCC=O`, the melting point was -8 °C.

With `C1=CCCC1`, the boiling point was 44.2 °C, the log10 vapour pressure (mmHg) is 2.58, the melting point was -135 °C and the ready biodegradability result is “readily biodegradable”.

In turn, `C[C@@H]1C[C@H]2[C@@H]3CCC4=CC(=O)C=C[C@]4(C)[C@@]3(F)[C@@H](O)C[C@]2(C)[C@@]1(O)C(=O)CO` displayed a melting point of 248 °C.

Turning to `CCCC(Cl)CCl` (stereo not given), the boiling point was found to be 148 °C.

In turn, `CC1(C)OCC(CO)O1` (stereo not given) gave a log10 vapour pressure (mmHg) of 2.03.

In the case of `CC(=O)CCCC(=O)O`, the boiling point was 274 °C and the melting point worked out at 13.5 °C.

The molecule `Cc1ccc(C(=O)C(C)CN2CCCCC2)cc1` (stereo not given) came in with a melting point of 176 °C.

In the case of `C=CCCC(C)=O`, the boiling point came to 130 °C and the log10 vapour pressure (mmHg) amounted to 1.02.

Regarding `C[Si](C)(Cl)O[Si](C)(C)Cl`, the boiling point was determined as 138 °C and the melting point is -37.5 °C.

In turn, `CCSc1ccccc1` registered a boiling point of 205 °C.

The series is the same for the next values; noted with them: fish.
For the molecule `CC(C)C(O)C(C)(C)CO` (stereo not given), the log10 BCF stood at 0 and the log10 biotransformation half-life (days) was -1.34.

For the molecule `c1ccoc1`, the log10 BCF worked out at 0.7 and the log10 biotransformation half-life (days) is -0.84.

Regarding `Brc1ccc(Oc2ccc(Br)c(Br)c2)c(Br)c1`, the log10 BCF amounted to 6.05.

As to `O=[N+]([O-])c1ccc(Cl)cc1`, the log10 BCF turned out to be 1.3 and the log10 biotransformation half-life (days) is -0.48.

As for `CCN(CC)c1ccc2c(-c3ccccc3C(=O)O)c3ccc(N(CC)CC)cc3[o+]c2c1`, the log10 BCF came out at 0.23.
